Data taken from US12077503B2, “Substituted cyclic amides and their use as herbicides” (FMC CORPORATION, priority 2015, dated 2024).

Tests used:
Assay type in all cases: in vivo
[1] = tested on: ducksalad (Heteranthera limosa); experiment: Test B flooded paddy test; details: Heteranthera limosa, 250 g ai/ha, Flood; 0 to 100 scale where 0 is no effect and 100 is complete control; read-out: Ducksalad plant response rating
Outline: (§1)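 Visual ratings (0 none to 100 complete control) are relative to untreated plants, taken 13–15 d after treatment in a greenhouse. Test material went straight into floodwater standing 3 cm above the soil, kept constant, on plants at the 2-leaf stage.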

rice (Oryra sativa) = experiment: Test B flooded paddy test; details: Oryza sativa, 250 g ai/ha, Flood; 0 to 100 scale where 0 is no effect and 100 is complete control; read-out: Rice plant response rating
Outline: as §1

[2] = tested on: barnyardgrass (Echinochloa crus-galli); experiment: Test B flooded paddy test; details: Echinochloa crus-galli, 250 g ai/ha, Flood; 0 to 100 scale where 0 is no effect and 100 is complete control; read-out: Barnyardgrass plant response rating
Outline: as §1

[3] = tested on: sedge, umbrella (small-flower umbrella sedge, Cyperus difformis); experiment: Test B flooded paddy test; details: Cyperus difformis, 250 g ai/ha, Flood; 0 to 100 scale where 0 is no effect and 100 is complete control; read-out: Sedge, Umbrella plant response rating
Outline: as §1

[4] = tested on: ryegrass, Italian (Italian ryegrass, Lolium multiflorum); experiment: Test A preemergence; details: Lolium multiflorum, pre-emergence, 240 h, 0 to 100 scale where 0 is no effect and 100 is complete control, read-out: Ryegrass, Italian plant response rating; for pest or weed control at 31 g/ha: 31 g ai/ha, Preemergence; for pest or weed control at 125 g/ha: 125 g ai/ha, preemergence, approx. 10 d
Outline: (§2)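 Treatment is preemergence as a directed soil spray after planting, or postemergence at the one- to two-leaf stage, with test chemical in a non-phytotoxic solvent mixture plus surfactant. Plants stay in the greenhouse about 10 d before visual injury scoring on a 0 to 100 scale versus untreated controls.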

[5] = tested on: ragweed (common ragweed, Ambrosia elatior); experiment: Test A preemergence; details: Ambrosia artemisiifolia, pre-emergence, 240 h, 0 to 100 scale where 0 is no effect and 100 is complete control, read-out: Ragweed plant response rating; for pest or weed control at 31 g/ha: 31 g ai/ha, Preemergence; for pest or weed control at 125 g/ha: 125 g ai/ha, preemergence, approx. 10 d
Outline: as §2

[6] = tested on: pigweed (Amaranthus retroflexus); experiment: Test A preemergence; details: Amaranthus retroflexus, pre-emergence, 240 h, 0 to 100 scale where 0 is no effect and 100 is complete control, read-out: Pigweed plant response rating; for pest or weed control at 31 g/ha: 31 g ai/ha, Preemergence; for pest or weed control at 125 g/ha: 125 g ai/ha, preemergence, approx. 10 d
[7] = tested on: giant foxtail (Setaria faberii); experiment: Test A preemergence; details: Setaria faberi, pre-emergence, 240 h, 0 to 100 scale where 0 is no effect and 100 is complete control, read-out: Foxtail, Giant plant response rating; for pest or weed control at 31 g/ha: 31 g ai/ha, Preemergence; for pest or weed control at 125 g/ha: 125 g ai/ha, preemergence, approx. 10 d
Outline: as §2

[8] = tested on: barnyardgrass (Echinochloa crus-galli); experiment: Test A preemergence; details: Echinochloa crus-galli, pre-emergence, 240 h, 0 to 100 scale where 0 is no effect and 100 is complete control, read-out: Barnyardgrass plant response rating; for pest or weed control at 31 g/ha: 31 g ai/ha, Preemergence; for pest or weed control at 125 g/ha: 125 g ai/ha, preemergence, approx. 10 d
Outline: as §2

Kochia (Kochia scoparia) [9] = experiment: Test A preemergence; details: Bassia scoparia, pre-emergence, 240 h, 0 to 100 scale where 0 is no effect and 100 is complete control, read-out: Kochia plant response rating; for pest or weed control at 31 g/ha: 31 g ai/ha, Preemergence; for pest or weed control at 125 g/ha: 125 g ai/ha, preemergence, approx. 10 d
Outline: as §2

[10] = tested on: ryegrass, Italian (Italian ryegrass, Lolium multiflorum); experiment: Test A postemergence; details: Lolium multiflorum, post-emergence, 240 h; for pest or weed control at 125 g/ha: 125 g ai/ha, postemergence, visual injury on 0 to 100 scale (0 no effect, 100 complete control), approx. 10 d, read-out: Ryegrass, Italian plant response rating; for pest or weed control at 31 g/ha: Postemergence, 31 g ai/ha, visual injury after approx. 10 d, 0 to 100 scale, 0 no effect, 100 complete control, read-out: Plant response rating, Ryegrass, Italian
Outline: as §2

[11] = tested on: ragweed (common ragweed, Ambrosia elatior); experiment: Test A postemergence; details: Ambrosia artemisiifolia, post-emergence, 240 h; for pest or weed control at 125 g/ha: 125 g ai/ha, postemergence, visual injury on 0 to 100 scale (0 no effect, 100 complete control), approx. 10 d, read-out: Ragweed plant response rating; for pest or weed control at 31 g/ha: Postemergence, 31 g ai/ha, visual injury after approx. 10 d, 0 to 100 scale, 0 no effect, 100 complete control, read-out: Plant response rating, Ragweed
Outline: as §2

[12] = tested on: Galium (catchweed bedstraw, Galium aparine); experiment: Test A postemergence; details: Galium, post-emergence, 240 h; for pest or weed control at 125 g/ha: 125 g ai/ha, postemergence, visual injury on 0 to 100 scale (0 no effect, 100 complete control), approx. 10 d, read-out: Galium plant response rating; for pest or weed control at 31 g/ha: Postemergence, 31 g ai/ha, visual injury after approx. 10 d, 0 to 100 scale, 0 no effect, 100 complete control, read-out: Plant response rating, Galium
Outline: as §2

[13] = tested on: pigweed (Amaranthus retroflexus); experiment: Test A postemergence; details: Amaranthus retroflexus, post-emergence, 240 h; for pest or weed control at 125 g/ha: 125 g ai/ha, postemergence, visual injury on 0 to 100 scale (0 no effect, 100 complete control), approx. 10 d, read-out: Pigweed plant response rating; for pest or weed control at 31 g/ha: Postemergence, 31 g ai/ha, visual injury after approx. 10 d, 0 to 100 scale, 0 no effect, 100 complete control, read-out: Plant response rating, Pigweed
Outline: as §2

corn (Zea mays) = experiment: Test A postemergence; details: Zea mays, post-emergence, 240 h; for plant injury at 125 g/ha: 125 g ai/ha, postemergence, visual injury on 0 to 100 scale (0 no effect, 100 complete control), approx. 10 d, read-out: Corn plant response rating; for Corn plant response rating (crop injury, 0 = no effect, 100 = complete kill) at 31 g/ha: Postemergence, 31 g ai/ha, visual injury after approx. 10 d, 0 to 100 scale, 100 complete control
Outline: as §2

[14] = tested on: giant foxtail (Setaria faberii); experiment: Test A postemergence; details: Setaria faberi, post-emergence, 240 h; for pest or weed control at 125 g/ha: 125 g ai/ha, postemergence, visual injury on 0 to 100 scale (0 no effect, 100 complete control), approx. 10 d, read-out: Foxtail, Giant plant response rating; for pest or weed control at 31 g/ha: Postemergence, 31 g ai/ha, visual injury after approx. 10 d, 0 to 100 scale, 0 no effect, 100 complete control, read-out: Plant response rating, Foxtail, Giant
Outline: as §2

[15] = tested on: blackgrass (Alopecurus myosuroides); experiment: Test A postemergence; details: Alopecurus myosuroides, post-emergence, 240 h; for pest or weed control at 125 g/ha: 125 g ai/ha, postemergence, visual injury on 0 to 100 scale (0 no effect, 100 complete control), approx. 10 d, read-out: Blackgrass plant response rating; for pest or weed control at 31 g/ha: Postemergence, 31 g ai/ha, visual injury after approx. 10 d, 0 to 100 scale, 0 no effect, 100 complete control, read-out: Plant response rating, Blackgrass
Outline: as §2

[16] = tested on: wheat (Triticum aestivum); experiment: Test A postemergence; details: Triticum aestivum, post-emergence, 240 h; for plant injury at 125 g/ha: 125 g ai/ha, postemergence, visual injury on 0 to 100 scale (0 no effect, 100 complete control), approx. 10 d, read-out: Wheat plant response rating; for plant injury at 31 g/ha: Postemergence, 31 g ai/ha, visual injury after approx. 10 d, 0 to 100 scale, 0 no effect, 100 complete control, read-out: Plant response rating, Wheat
Outline: as §2

[17] = tested on: barnyardgrass (Echinochloa crus-galli); experiment: Test A postemergence; details: Echinochloa crus-galli, post-emergence, 240 h; for pest or weed control at 125 g/ha: 125 g ai/ha, postemergence, visual injury on 0 to 100 scale (0 no effect, 100 complete control), approx. 10 d, read-out: Barnyardgrass plant response rating; for pest or weed control at 31 g/ha: Postemergence, 31 g ai/ha, visual injury after approx. 10 d, 0 to 100 scale, 0 no effect, 100 complete control, read-out: Plant response rating, Barnyardgrass
Outline: as §2

Kochia (Kochia scoparia) [18] = experiment: Test A postemergence; details: Bassia scoparia, post-emergence, 240 h; for pest or weed control at 125 g/ha: 125 g ai/ha, postemergence, visual injury on 0 to 100 scale (0 no effect, 100 complete control), approx. 10 d, read-out: Kochia plant response rating; for pest or weed control at 31 g/ha: Postemergence, 31 g ai/ha, visual injury after approx. 10 d, 0 to 100 scale, 0 no effect, 100 complete control, read-out: Plant response rating, Kochia
Outline: as §2

C=C(C)c1cccc([C@H]2CN(C)C(=O)[C@@H]2C(=O)Nc2cccc(F)c2F)c1 [Compound 1085]
30%: pest or weed control at 250 g/ha [1]
60%: pest or weed control at 250 g/ha [2] | pest or weed control at 125 g/ha [12] | pest or weed control at 125 g/ha [14]
25%: pest or weed control at 250 g/ha (rice (Oryra sativa))
0%: pest or weed control at 250 g/ha [3] | pest or weed control at 31 g/ha [4] | pest or weed control at 125 g/ha [4] | pest or weed control at 31 g/ha [5] | pest or weed control at 125 g/ha [5] | pest or weed control at 31 g/ha [6] | pest or weed control at 125 g/ha [6] | pest or weed control at 31 g/ha [8] | pest or weed control at 31 g/ha (Kochia (Kochia scoparia) [9]) | pest or weed control at 125 g/ha (Kochia (Kochia scoparia) [9]) | pest or weed control at 31 g/ha [10] | pest or weed control at 125 g/ha [11] | pest or weed control at 31 g/ha [11] | pest or weed control at 31 g/ha [13] | pest or weed control at 31 g/ha [14] | pest or weed control at 31 g/ha [15] | plant injury at 31 g/ha [16] | pest or weed control at 31 g/ha (Kochia (Kochia scoparia) [18])
20%: pest or weed control at 125 g/ha [10] | pest or weed control at 125 g/ha [13] | plant injury at 125 g/ha (corn (Zea mays)) | Corn plant response rating (crop injury, 0 = no effect, 100 = complete kill) at 31 g/ha (corn (Zea mays)) | pest or weed control at 125 g/ha [15] | plant injury at 125 g/ha [16] | pest or weed control at 125 g/ha (Kochia (Kochia scoparia) [18])
40%: pest or weed control at 31 g/ha [12] | pest or weed control at 31 g/ha [17]
100%: pest or weed control at 125 g/ha [7]
90%: pest or weed control at 31 g/ha [7] | pest or weed control at 125 g/ha [8] | pest or weed control at 125 g/ha [17]

C=C(C)c1cccc([C@H]2CN(C)C(=O)[C@@H]2C(=O)Nc2cccc(F)c2C)c1 [Compound 1086]
40%: pest or weed control at 250 g/ha [1]
0%: pest or weed control at 250 g/ha (rice (Oryra sativa)) | pest or weed control at 250 g/ha [3] | pest or weed control at 31 g/ha [4] | pest or weed control at 31 g/ha [5] | pest or weed control at 125 g/ha [5] | pest or weed control at 31 g/ha [6] | pest or weed control at 125 g/ha [6] | pest or weed control at 31 g/ha (Kochia (Kochia scoparia) [9]) | pest or weed control at 125 g/ha (Kochia (Kochia scoparia) [9]) | pest or weed control at 125 g/ha [10] | pest or weed control at 31 g/ha [10] | pest or weed control at 125 g/ha [11] | pest or weed control at 31 g/ha [11] | pest or weed control at 31 g/ha [12] | pest or weed control at 125 g/ha [13] | pest or weed control at 31 g/ha [13] | Corn plant response rating (crop injury, 0 = no effect, 100 = complete kill) at 31 g/ha (corn (Zea mays)) | pest or weed control at 125 g/ha [15] | pest or weed control at 31 g/ha [15] | plant injury at 31 g/ha [16] | pest or weed control at 125 g/ha (Kochia (Kochia scoparia) [18]) | pest or weed control at 31 g/ha (Kochia (Kochia scoparia) [18])
90%: pest or weed control at 31 g/ha [7] | pest or weed control at 125 g/ha [17]
60%: pest or weed control at 125 g/ha [14]
100%: pest or weed control at 125 g/ha [7]
30%: pest or weed control at 125 g/ha [4] | plant injury at 125 g/ha (corn (Zea mays)) | pest or weed control at 31 g/ha [17]
10%: pest or weed control at 31 g/ha [14]
45%: pest or weed control at 250 g/ha [2]
20%: pest or weed control at 125 g/ha [12] | plant injury at 125 g/ha [16]
80%: pest or weed control at 31 g/ha [8] | pest or weed control at 125 g/ha [8]
